Experimental data reported in patent publication US9145374B2, “Shikimate pathway inhibitors and the use thereof” (National Tsing Hua University, priority 2013, dated 2015).
Values after ≈ are worked out from the molar mass of the structure shown. Values joined by “and” are separate entries in the source; they are usually repeats but may differ in a detail not shown here. Identical values can stand only once.

Legend:
H. pylori [1] = test: Minimum bactericidal concentration assay (MBC assay) against H. pylori; format: cell-based, Helicobacter pylori; conditions: for MBC: Helicobacter pylori; for anti-bacterial activity toward H. pylori (in words): wild type (26695) and clinical isolated strains
Protocol: To evaluate the anti-H. pylori activity, the minimum bactericidal concentration (MBC) value of compounds was determined. The MBC value of standard antibiotics, clarithromycine (CLR) and metronidazole (MTZ) were served as the positive control.
Wild type (26695, as reference strain) was cultured on brucella broth agar plate containing 1% IsovialeX (Becton, Dickinson and Company, USA) and 10% sheep blood in microaerophilic environment (5% O2, 10% CO2, and 85% N2), 37° C. Clinical strains (v574, v633, v1086, v1254, v1267, v1354 and v2311) were cultured on brucella broth agar plate containing 1% IsovialeX and 20%-30% sheep blood in microaerophilic environment (5% O2, 10% CO2, and 85% N2), 37° C.
Wild type and selected clinical H. pylori strains was cultured for 24 to 36 hours and measured by Cell density meter, O.D. 680 at 0.87-0.9. H. pylori and selected compounds with serial concentration were mixed in Brucella-broth (BD) with 10% of FBS in 24-well plate, and total volume of each well was 300 μl, cultured under 37° C. with 180 rpm shaking. After incubated for 24 hours, 3 μl of each well was seeding on blood agar plate for another 48 hours culture. […] The final concentration of DMSO in the assay was less than 5% to avoid any effect in the growth of H. pylori at this experiment.

H. pylori [2] = test: Synergistic effect of compound 25a in MBC test against H. pylori; format: cell-based, Helicobacter pylori; conditions: for MBC: Helicobacter pylori, 24 h, read-out: MBC, single treatment
[3] = molecular target: T1, H. pylori Shikimate Dehydrogenase (HpSDH) (Helicobacter pylori, UniProt P56119); test: Inhibition activity assay toward HpSDH; format: biochemical; conditions: for IC50: IC50 toward HpSDH, wild type (26695) HpSDH recombinant protein; for inhibition activity toward HpSDH (in words): preliminary screening concentration 100 μM
T1 construct: made in house; host or cells: E. coli BL21
From the text: The recombinant HpSDH (aroE) was cloned in pET-28a plasmid and transformed into E. coli strain BL21 as expression host.
Relative HpSDH activity calculations were based on the initial velocity that absorbance at the 5 to 10% of the time when reaction absorbance reached the maximum level. The variable slope of this time interval represented the reaction rate of HpSDH at various concentration of compound and normalized with the negative control HpSDH (without inhibitor) which represented 100% activity.
To evaluate structure activity relationship (SAR), all the synthesized compounds in SDH inhibition activity on wild type HpSDH recombinant protein was evaluated. All the datas of effective compounds were expressed as IC50 value after treated with different compounds. In priminary screening, using 100 μM as priminary screening concentration to evaluate all synthesized compounds.
(§1) The enzymatic activity of HpSDH was measured in the direction of reduction of NADP^+ to NADPH in the present of shikimic acid at 340 nm absorbance and conducted in 96-well plate ELISA reader. The final concentration of shikimic acid and NADP^+ were 2 mM, and the final protein concentration was 100 nM. Shikimic acid was added by injector needle equipped in ELISA reader to ensure the measurements were made at the same time spacing. NADPH would accumulate along with reaction, and the absorbance at 340 nm would be measured in every cycle of HpSDH reaction.

[4] = molecular target: T1, H. pylori Shikimate Dehydrogenase (HpSDH); test: Enzymatic kinetics of effective compounds toward HpSDH; format: biochemical; conditions: for inhibition type toward NADP+ / inhibition type toward shikimic acid: HpSDH
Protocol: as §1
To study the inhibition mode of these compounds and inhibition type to shikimic acid and NADP^+, different concentrations of inhibitors and graded concentrations of substrates by activity assay was examined.

T1 sequence (P56119 whole entry): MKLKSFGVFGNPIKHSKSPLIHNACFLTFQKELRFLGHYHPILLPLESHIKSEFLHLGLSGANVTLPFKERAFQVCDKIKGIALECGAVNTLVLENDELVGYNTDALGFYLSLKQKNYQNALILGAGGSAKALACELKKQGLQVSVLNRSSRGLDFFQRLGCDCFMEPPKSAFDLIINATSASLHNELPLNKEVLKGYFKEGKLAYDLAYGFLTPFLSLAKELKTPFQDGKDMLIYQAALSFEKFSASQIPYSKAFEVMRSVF

| Structure (SMILES) | MBC (H. pylori [1]; W.T 26695) [µg/mL] | MBC (H. pylori [1]; clinical isolated strain v574) [µg/mL] | MBC (H. pylori [1]; clinical isolated strain v633) [µg/mL] | MBC (H. pylori [1]; clinical isolated strain v1086) [µg/mL] | MBC (H. pylori [1]; clinical isolated strain v1254) [µg/mL] | MBC (H. pylori [1]; clinical isolated strain v1267) [µg/mL] | MBC (H. pylori [1]; clinical isolated strain v1354) [µg/mL] | MBC (H. pylori [1]; clinical isolated strain v2311) [µg/mL] | MBC value against H. pylori (H. pylori [1]; W.T 26695) [µg/mL] | MBC value against H. pylori (H. pylori [1]; clinical isolated strain v633) [µg/mL] | IC50 [3] | inhibition activity toward HpSDH (in words) [3] | Ki [4] [µM] | inhibition type toward NADP+ [4] | inhibition type toward shikimic acid [4] | further results |
| --- | --- | --- | --- | --- | --- | --- | --- | --- | --- | --- | --- | --- | --- | --- | --- | --- |
| O=C1NC(=O)C(=C/C=C/c2ccc([N+](=O)[O-])cc2)C(=O)N1 [7b] | 8 (≈ 27.9 µM) | 8 (≈ 27.9 µM) | 4 (≈ 13.9 µM) | 8 (≈ 27.9 µM) | 8 (≈ 27.9 µM) | 8 (≈ 27.9 µM) | 8 (≈ 27.9 µM) | 16 (≈ 55.7 µM) | 8.0 (≈ 27.9 µM) | 4.0 (≈ 13.9 µM) | – | – | – | – | – | – |
| CC[C@H]1OC(=O)[C@H](C)[C@@H](O[C@H]2C[C@@](C)(OC)[C@@H](O)[C@H](C)O2)[C@H](C)[C@@H](O[C@@H]2O[C@H](C)C[C@H](N(C)C)[C@H]2O)[C@](C)(OC)C[C@@H](C)C(=O)[C@H](C)[C@@H](O)[C@]1(C)O [CLR, clarithromycin] | – | – | – | – | – | – | – | – | – | – | – | – | – | – | – | growth of resistant strain v1086 (in words) (H. pylori [2]; CLR 4 mg/L alone or with compound 25a 2 mg/L): cannot completely inhibit the growth; MBC (H. pylori [2]; 26695 wild type): < 1 µg/mL; MBC (H. pylori [2]; v574 MTR-resistant strain): < 1 µg/mL; MBC (H. pylori [2]; v1086 CLR-resistant strain): 8 µg/mL |
| COc1ccccc1/C=C/C=C1C(=O)NC(=O)NC1=O [7c] | – | – | – | – | – | – | – | – | – | – | 33.7 µM | more effective inhibitors | – | – | – | MBC (H. pylori [1]; 24 h, W.T 26695): 16 µg/mL (≈ 58.8 µM); MBC (H. pylori [1]; 24 h, clinical isolated strain v574): 16 µg/mL (≈ 58.8 µM); MBC (H. pylori [1]; 24 h, clinical isolated strain v633): 16 µg/mL (≈ 58.8 µM); MBC (H. pylori [1]; 24 h, clinical isolated strain v1086): 8 µg/mL (≈ 29.4 µM); MBC (H. pylori [1]; 24 h, clinical isolated strain v1254): 16 µg/mL (≈ 58.8 µM); MBC (H. pylori [1]; 24 h, clinical isolated strain v1267): 16 µg/mL (≈ 58.8 µM); MBC (H. pylori [1]; 24 h, clinical isolated strain v1354): 16 µg/mL (≈ 58.8 µM); MBC (H. pylori [1]; 24 h, clinical isolated strain v2311): 16 µg/mL (≈ 58.8 µM) |
| O=C1NC(=O)C(=C/C=C/c2ccccc2)C(=O)N1 [7a] | – | – | – | – | – | – | – | – | – | – | 32.7 µM | more effective inhibitors | – | – | – | – |
| C=CCN1C(=O)NC(=O)/C(=C/C=C/c2ccccc2)C1=O [CB6942859] | 5 (≈ 17.7 µM) | – | – | – | – | – | – | – | 5.0 (≈ 17.7 µM) | – | – | – | – | – | – | – |
| COc1ccc(/C=C/C=C2C(=O)NC(=O)NC2=O)cc1 [7d] | 8 (≈ 29.4 µM) | 8 (≈ 29.4 µM) | 4 (≈ 14.7 µM) | 8 (≈ 29.4 µM) | 8 (≈ 29.4 µM) | 8 (≈ 29.4 µM) | 8 (≈ 29.4 µM) | 16 (≈ 58.8 µM) | 8.0 (≈ 29.4 µM) | 4.0 (≈ 14.7 µM) | 35.1 µM | more effective inhibitors | – | – | – | anti-bacterial activity toward H. pylori (in words) (H. pylori [1]): three most potent inhibitors |
| O=C1NC(=O)C(=C/C=C/c2ccc(NC(=O)c3ccccc3)cc2)C(=O)N1 [compound 17, (E)-N-(4-(3-(2,4,6-trioxotetrahydropyrimidin-5(2H)-ylidene)prop-1-en-1-yl)phenyl)benzamide] | 16 (≈ 44.3 µM) | 16 (≈ 44.3 µM) | 16 (≈ 44.3 µM) | 16 (≈ 44.3 µM) | 16 (≈ 44.3 µM) | 16 (≈ 44.3 µM) | 8 (≈ 22.1 µM) | 16 (≈ 44.3 µM) | – | – | 16.1 µM and 11 to 22 µM | more effective inhibitors | 6.93 | competitive inhibition | non-competitive or uncompetitive | – |
| COc1cccc(OC)c1/C=C/C=C1C(=O)NC(=O)NC1=O [7h] | 8 (≈ 26.5 µM) | 8 (≈ 26.5 µM) | 4 (≈ 13.2 µM) | 16 (≈ 52.9 µM) | 32 (≈ 106 µM) | 8 (≈ 26.5 µM) | 4 (≈ 13.2 µM) | 16 (≈ 52.9 µM) | 8.0 (≈ 26.5 µM) | 4.0 (≈ 13.2 µM) | – | more effective inhibitors | – | – | – | MBC value against H. pylori (H. pylori [1]; clinical isolated strain v1354): 4.0 µg/mL (≈ 13.2 µM) |
| CSc1ccc(/C=C/C=C2C(=O)NC(=O)NC2=O)cc1 [7e] | 8 (≈ 27.7 µM) | 8 (≈ 27.7 µM) | 8 (≈ 27.7 µM) | 8 (≈ 27.7 µM) | 8 (≈ 27.7 µM) | 8 (≈ 27.7 µM) | 8 (≈ 27.7 µM) | 8 (≈ 27.7 µM) | 8.0 (≈ 27.7 µM) | – | 22 µM and 11 to 22 µM | more effective inhibitors | 2.67 | competitive inhibition | non-competitive or uncompetitive | anti-bacterial activity toward H. pylori (in words) (H. pylori [1]): three most potent inhibitors |
| COc1cc(/C=C/C=C2C(=O)NC(=O)NC2=O)cc(OC)c1 [7i] | 8 (≈ 26.5 µM) | 8 (≈ 26.5 µM) | 4 (≈ 13.2 µM) | 8 (≈ 26.5 µM) | 32 (≈ 106 µM) | 8 (≈ 26.5 µM) | 4 (≈ 13.2 µM) | 16 (≈ 52.9 µM) | 8.0 (≈ 26.5 µM) | 4.0 (≈ 13.2 µM) | 20.3 µM and 11 to 22 µM | more effective inhibitors | 3.81 | competitive inhibition | non-competitive or uncompetitive | MBC value against H. pylori (H. pylori [1]; clinical isolated strain v1354): 4.0 µg/mL (≈ 13.2 µM) |
| Cc1cc(C)cc(N2C(=O)NC(=O)/C(=C\C=C\c3ccccc3)C2=O)c1 [CB6010554] | 10 (≈ 28.9 µM) | – | – | – | – | – | – | – | 10.0 (≈ 28.9 µM) | – | – | – | – | – | – | – |
| C=CCN1C(=O)C(=C/C=C/c2ccccc2)C(=O)N(CC=C)C1=O [25a, (E)-1,3-diallyl-5-(3-phenylallylidene)pyrimidine-2,4,6(1H,3H,5H)-trione] | 8 (≈ 24.8 µM) | 8 (≈ 24.8 µM) | 16 (≈ 49.6 µM) | 8 (≈ 24.8 µM) | 8 (≈ 24.8 µM) | 8 (≈ 24.8 µM) | 8 (≈ 24.8 µM) | 8 (≈ 24.8 µM) | 8.0 (≈ 24.8 µM) | – | 11.4 µM and 11 to 22 µM | more effective inhibitors | 2.01 | competitive inhibition | non-competitive or uncompetitive | anti-bacterial activity toward H. pylori (in words) (H. pylori [1]): three most potent inhibitors; MBC (H. pylori [2]): 6 µg/mL; MBC, single treatment (H. pylori [2]; v574 MTR-resistant strain): 6.0 µg/mL; MBC, single treatment (H. pylori [2]; v1086 CLR-resistant strain): 6.0 µg/mL |
| Cc1ncc([N+](=O)[O-])n1CCO [MTR, metronidazole] | – | – | – | – | – | – | – | – | – | – | – | – | – | – | – | MBC (H. pylori [2]; 26695 wild type): < 1 µg/mL; MBC (H. pylori [2]; v574 MTR-resistant strain): 32 µg/mL; MBC (H. pylori [2]; v1086 CLR-resistant strain): < 1 µg/mL; growth of v574 strain (in words) (H. pylori [2]; MTR 16 mg/L alone or with compound 25a 2 mg/L): cannot suppressed the growth; dosage needed to inhibit strain v574 relative to compound 25a (H. pylori [2]; v574 metronidazole resistant strain): 5 times |
